Data from article PMC12443583 (Nature Medicine, 2025).

Legend:
p-MEK (Ser222) = test: p-MEK in tumor biopsies, antibody bead-based Luminex; assay type: in vivo, human; details: post-treatment versus pretreatment biopsy
p-ERK (Thr185–Try187) = test: p-ERK in tumor biopsies, antibody bead-based Luminex; assay type: in vivo, human; details: post-treatment versus pretreatment biopsy
LGSOC = details: 23 (binimetinib), cited from earlier work; for progression-free interval / response rate: phase 2 and phase 3 trials, ref 24 (selumetinib), 25 (trametinib); for discontinuation rates because of AEs: ref 25 (trametinib)

Structure (SMILES)	phosphorylation of p-MEK in tumor biopsies (p-MEK (Ser222))	phosphorylation of p-ERK in tumor biopsies (p-ERK (Thr185–Try187))	progression-free interval (LGSOC) [months]	response rate (LGSOC) [%]	discontinuation rates because of AEs (LGSOC) [%]
CNS(=O)(=O)Nc1nccc(Cc2c(C)c3ccc(Oc4ncccn4)cc3oc2=O)c1F [avutometinib]	reduction	reduction	–	–	–
Cn1cnc2c(F)c(Nc3ccc(Br)cc3F)c(C(=O)NOCCO)cc21 [binimetinib]	–	–	9.1	16	31
Cn1cnc2c(F)c(Nc3ccc(Br)cc3Cl)c(C(=O)NOCCO)cc21 [selumetinib]	–	–	11	15	–
CC(=O)Nc1cccc(-n2c(=O)n(C3CC3)c(=O)c3c(Nc4ccc(I)cc4F)n(C)c(=O)c(C)c32)c1 [trametinib]	–	–	13	26	36
